# Results reported in patent US6838084B1, “Cytotoxic T-cell epitopes of the papilloma virus l1-protein and use thereof in diagnosis and therapy” (priority 1999, dated 2005).
# Read-outs that look alike come from different tables or passages of the source.
# Columns and labels:
# CVLP-stimulated T cells [1] = assay: Restimulation of CVLP-stimulated T cells, HLA A1-positive donor, 20 mer peptides (γ-interferon FACScan); type: cell-based, human; settings: for restimulation of CVLP-stimulated T cells (CD8-positive T cells reactive by γ-interferon expression): PBMCs with 10 μg/ml peptide, HLA A1-positive donor, FIG. 4
# Description: (§1) The name of the particular peptide with which the PBMCs were loaded is listed from left to right. “None” represents PBMCs which were incubated only with buffer.
# (§2) Human T cells (4×10^5) of an HLA A1-positive donor were stimulated with HPV16 L1ΔC·E71-55 CVLPs at 37° C. for 5 weeks with weekly addition of 1 μg/ml CVLPs and 10^5 antigen-presenting cells (irradiated PMBCs), and harvested. The cells were then restimulated in 100 μl of medium at 37° C. with 10 μg/ml of the peptides listed along the X axis of FIG. 4 in the presence of 10 IU/ml IL2. Cells incubated only with buffer served as a negative control.
# (§3) After one hour, 1 μl of Monensin (300 μM) was added. The cells were incubated at 37° C. for a further 5 hours. The cells were then fixed and permeabilized, and stained with α-hum CD8/PE, with α-hum CD4/Cychrome and with α-hum γ-interferon/FITC. The cells were examined in a FACScan calibur with respect to their label and the data were analyzed with the aid of Cellquest software.
# CVLP-stimulated T cells [2] = assay: Restimulation of CVLP-stimulated T cells, non-HLA-classified donor, 20 mer peptides (γ-interferon FACScan); type: cell-based, human; settings: for restimulation of CVLP-stimulated T cells (CD4-positive T cells reactive by γ-interferon expression): PBMCs with 10 μg/ml peptide, non-HLA-classified donor, FIG. 5; for Epitop-Information (epitope type): Table 2
# Description: as §1
# as §2, with “of a non-HLA-classified” for “of an HLA A1-positive”, “for 6” for “for 5”, “FIG. 5” for “FIG. 4”
# as §3
# HLA A1 molecules = settings: Kast et al. (1994) Journal of Immunology 152, 3904-3912, cited from earlier work
# CVLP-stimulated T cells [3] = assay: Restimulation of CVLP-stimulated T cells, HLA A2.01-positive donor (γ-interferon FACScan); type: cell-based, human; settings: PBMCs incubated with 10 μg/ml antigen, FIG. 3
# Description: The content of T cell-specific CD3 for each experiment is listed from left to right and the content of human γ interferon which is specific for activated cells is listed from bottom to top.
# Human T cells (4×10^5) of an HLA A2.01-positive donor were stimulated with HPV16 LlΔC·E71-55 CVLPs at 37° C. for 8 weeks with weekly addition of 1 μg/ml CVLPs and 10^5 antigen-presenting cells (irradiated PMBCs), and harvested. The cells were then restimulated in 100 μl of medium at 37° C. with 10 μg/ml various antigens in the presence of 10 IU/ml IL2 and 0.5 μg/ml α-human CD28: • a) with CVLP-incubated PBMCs overnight • b) with L1 2022 peptide-incubated PBMCs overnight • c) with L1 2025 peptide (control peptide)incubated PBMCs overnight
# as §3, with “Golgi Plug” for “Monensin (300 μM)”, “CD3/PE,” for “CD8/PE,”
# CVLP-specific T cells = assay: Peptide-specific TNFα secretion by CVLP-stimulated T cells (WEHI cell/MTT readout); type: cell-based, human; settings: PMBC + 10 μg/ml peptide, overnight, 10 IU/ml IL-2; HLA A2.01-positive donor; FIG. 1
# Text: T cells stimulated by specific, antigen-presenting PBLs release TNFα. This induces apoptosis in WEHI cells so that these cells are no longer able to process MTT into a brownish dye. Low absorption means low dye production and thus many apoptotic cells which had thus been exposed to a lot of TNFα so that the corresponding T cells had been stimulated. Thus, stimulation of T cells improves with decreasing absorption at 595 nm for a particular antigen.
# Human T cells (4×10^5) of an HLA A2.01-positive donor were stimulated with HPV16 L1ΔC·E71-55 CVLPs at 37° C. for 8 weeks with weekly addition of 1 μg/ml CVLPs, 10^5 irradiated peripheral blood mononuclear cells (PMBCs) and 10 IU/ml IL-2, and harvested.
# The cells were stimulated in 100 μl of medium at 37° C. overnight with different antigens (PMBC+E7 peptide; PMBC+HPV16 L1αC·E71-55 (CVLP); PMBC+5104, 5105, 5106, 5107, 5108, 5109, 5112, 5113, 10 μg/ml each) in the presence of 10 IU/ml IL-2. During this time, stimulated cells produce TNFα.
# The following day, 50 μl of supernatant were removed, frozen, thawed again (in order to destroy possibly coremoved cells) and added to 50 μl of a cell suspension containing 0.9×10^6 WEHI cells, 2 μg/ml actinomycin D and 400 mM LiCl. The cells were incubated at 37° C. for 24 h. During this time, TNFα (if present in the supernatant) induces apoptosis of WEHI cells. Addition of 50 μl of a 2.5 mg/ml MTT solution in PBS stained non-apoptotic cells brown within three hours, whereas apoptotic cells remained yellow. All cells were lysed by adding 100 μl of lysis buffer (34% N,N-dimethylformamide, 20% sodium dodecyl sulfate) and incubating at 37° for at least 6 hours so that the dyes were released. Finally, absorption of the solution was measured at 595 nm.
# Low absorption means low dye production and thus many apoptotic cells which had thus been exposed to a lot of TNFα so that the corresponding T cells had been stimulated. Thus, T-cell stimulation improved with decreasing absorption at 595 nm.
# [4] = molecular target: T1, MHC-1 complexes of T2 cells (Homo sapiens, UniProt P04439, I119V/I121R/I166T/I218V/L300P/L318F/N151K/N90K/P208A/P217A/Q86G/Q94H/R138H/R169H/T345S); type: binding; settings: 0, 10 or 100 μg/ml peptide overnight; BB7.2 antibody, FACS; FIG. 2
# T1 construct: The unloaded MHC-1 molecules which are nevertheless present on the cell surface; host or cells: T2 cells
# CVLP-stimulated T cells [5] = assay: Restimulation of CVLP-stimulated T cells with peptide pools, HLA A1-positive donor; type: cell-based, human; settings: common to pools E and 6
# Description: The name of the particular peptide pool with which the PBMCs were loaded is listed from left to right. “None” represents PBMCs which were incubated only with buffer.
# Human T cells (4×10^5) of an HLA A1-positive donor were stimulated with HPV16 L1ΔC·E71-55 CVLPs at 37° C. for 6 weeks with weekly addition of 1 μg/ml CVLPs and 10^5 antigen-presenting cells (irradiated PMBCs), and harvested.
# The 20 mer peptides 1 to 51 were combined in peptide pools A to H and 1 to 7 according to the matrix
# The T cells of an HLA A1-positive donor were then restimulated in 100 μl of medium at 37° C. with the peptide pools in the presence of 10 IU/ml IL2. In this connection, such amounts of peptide pools were used that for each individual peptide 1 μg/ml was added. Cells incubated only with buffer served as a negative control.
# as §3, with “Golgi Plug” for “Monensin (300 μM)”
sequence,measurement,setting,value
AEPDRAHYNIVTFCCXCDST (AEPDRAHYNIVTFCCKCDST; Human papillomavirus type 16) [Peptide 48],restimulation of CVLP-stimulated T cells (CD8-positive T cells reactive by γ-interferon expression),CVLP-stimulated T cells [1],effected restimulation of CVLP-stimulated T cells
ASSNYFPTPSGSMVTSDAQI [Peptide 27],restimulation of CVLP-stimulated T cells (CD4-positive T cells reactive by γ-interferon expression),CVLP-stimulated T cells [2],effected restimulation of CVLP-stimulated T cells
same,Epitop-Information (epitope type),CVLP-stimulated T cells [2],T-helper epitope
EEDEIDGPAGQAEPDRAHYN (Human papillomavirus type 16) [Peptide 47],restimulation of CVLP-stimulated T cells (CD8-positive T cells reactive by γ-interferon expression),CVLP-stimulated T cells [1],effected restimulation of CVLP-stimulated T cells
ETTDLYCY (Human papillomavirus type 16) [peptide contained in peptide 45],binding to HLA A1 molecules,HLA A1 molecules,described as HLA A1-binding peptide
same,binding to HLA A1 molecules,HLA A1 molecules; listed as E7 peptide 45,can bind to HLA A1 molecules
GLQYRVFRI (Human papillomavirus type 16) [Peptide 2025],"restimulation of CVLP-stimulated T cells (γ interferon, CD3)",CVLP-stimulated T cells [3],"not control peptide-incubated PBMCs, effected restimulation"
HLFNRAGTV (Human papillomavirus type 16) [Peptide 5107],"stimulating CVLP-specific T cells (TNFα secretion, absorption at 595 nm)",CVLP-specific T cells,capable of stimulating CVLP-specific T cells
same,"MHC molecules on the cell surface of T2 cells (fluorescence), indicating binding to MHC molecules",[4],significantly more MHC molecules on the cell surface
ICWGNQLFV (Human papillomavirus type 16) [Peptide 2022],"restimulation of CVLP-stimulated T cells (γ interferon, CD3)",CVLP-stimulated T cells [3],effected restimulation of CVLP-stimulated T cells
same,"MHC molecules on the cell surface of T2 cells (fluorescence), indicating binding to MHC molecules",[4],significantly more MHC molecules on the cell surface
ILEDWNFGL (Human papillomavirus type 16) [Peptide 5112],"stimulating CVLP-specific T cells (TNFα secretion, absorption at 595 nm)",CVLP-specific T cells,capable of stimulating CVLP-specific T cells
same,"MHC molecules on the cell surface of T2 cells (fluorescence), indicating binding to MHC molecules",[4],significantly more MHC molecules on the cell surface
ILVPKVSGL (Human papillomavirus type 16) [Peptide 5104],"stimulating CVLP-specific T cells (TNFα secretion, absorption at 595 nm)",CVLP-specific T cells,capable of stimulating CVLP-specific T cells
MHGDTPTLH (Human papillomavirus type 16) [9 mer contained in peptide 43],binding to HLA A1 molecules,HLA A1 molecules,described as HLA A1-binding peptides
same,binding to HLA A1 molecules,HLA A1 molecules; listed as E7 peptide 43,can bind to HLA A1 molecules
MLDLQPETTDLYCYEQLNDS (Human papillomavirus type 16) [Peptide 45],"peptide responsible for restimulation, deduced from pool matrix",CVLP-stimulated T cells [5],in all probability responsible for restimulation of CVLP-stimulated T cells
NLASSNYFPT (Human papillomavirus type 16) [Peptide 2017],"MHC molecules on the cell surface of T2 cells (fluorescence), indicating binding to MHC molecules",[4],significantly more MHC molecules on the cell surface
PLGRKFLLQAGMHGDTPTLH (Human papillomavirus type 16) [Peptide 43],restimulation of CVLP-stimulated T cells (CD8-positive T cells reactive by γ-interferon expression),CVLP-stimulated T cells [1],effected restimulation of CVLP-stimulated T cells
same,Epitop-Information (HLA restriction),CVLP-stimulated T cells [1]; Table 2,HLA A1 restr.
same,Epitop-Information (epitope type),CVLP-stimulated T cells [1]; Table 2,cytotoxic epitope
QAEPDRAHYN (Human papillomavirus type 16) [10 mer contained in overlapping peptides 47 and 48],binding to HLA A1 molecules,HLA A1 molecules,described as HLA A1-binding peptides
same,binding to HLA A1 molecules,HLA A1 molecules; listed as E7 peptide 47/48,can bind to HLA A1 molecules
RLVWACVGV (Human papillomavirus type 16) [Peptide 5106],"stimulating CVLP-specific T cells (TNFα secretion, absorption at 595 nm)",CVLP-specific T cells,capable of stimulating CVLP-specific T cells
same,"MHC molecules on the cell surface of T2 cells (fluorescence), indicating binding to MHC molecules",[4],significantly more MHC molecules on the cell surface
SLWLPSEATVYL [Peptide 2016],"MHC molecules on the cell surface of T2 cells (fluorescence), indicating binding to MHC molecules",[4],significantly more MHC molecules on the cell surface
SMVTSDAQIFNKPYWLQRAQ [Peptide 28],restimulation of CVLP-stimulated T cells (CD4-positive T cells reactive by γ-interferon expression),CVLP-stimulated T cells [2],effected restimulation of CVLP-stimulated T cells
same,Epitop-Information (epitope type),CVLP-stimulated T cells [2],T-helper epitope
TLQANKSEV (Human papillomavirus type 16) [Peptide 5109],"stimulating CVLP-specific T cells (TNFα secretion, absorption at 595 nm)",CVLP-specific T cells,capable of stimulating CVLP-specific T cells
same,"MHC molecules on the cell surface of T2 cells (fluorescence), indicating binding to MHC molecules",[4],significantly more MHC molecules on the cell surface
TLTADVMTYI (Human papillomavirus type 16) [Peptide 2018],"MHC molecules on the cell surface of T2 cells (fluorescence), indicating binding to MHC molecules",[4],significantly more MHC molecules on the cell surface
YDLQFIFQL (Human papillomavirus type 16) [Peptide 2020],"MHC molecules on the cell surface of T2 cells (fluorescence), indicating binding to MHC molecules",[4],significantly more MHC molecules on the cell surface
YLPPVPVSKV (Human papillomavirus type 16) [Peptide 2019],"MHC molecules on the cell surface of T2 cells (fluorescence), indicating binding to MHC molecules",[4],significantly more MHC molecules on the cell surface
YLRREQMFV (Human papillomavirus type 16) [Peptide 5108],"stimulating CVLP-specific T cells (TNFα secretion, absorption at 595 nm)",CVLP-specific T cells,capable of stimulating CVLP-specific T cells
